Measured values as given in ChEMBL document CHEMBL4706557, “Synthesis and in vitro and in vivo biological evaluation of novel derivatives of flexicaulin A as antiproliferative agents” (Eur J Med Chem, 2020).

Legend:
MCF7 = assay: Antiproliferative activity against human MCF7 cells assessed as inhibition of cell growth incubated for 72 hrs by SRB assay; type: functional, cell-based; settings: MCF7, 72 h
ECa-109 cell line [1] = assay: Antiproliferative activity against human EC109 cells assessed as inhibition of cell growth incubated for 72 hrs by SRB assay; type: functional, cell-based; settings: ECa-109, 72 h
MGC-803 = assay: Antiproliferative activity against human MGC-803 cells assessed as inhibition of cell growth incubated for 72 hrs by SRB assay; type: functional, cell-based; settings: MGC-803, 72 h
TE-1 = assay: Antiproliferative activity against human TE-1 cells assessed as inhibition of cell growth incubated for 72 hrs by SRB assay; type: functional, cell-based; settings: TE-1, 72 h
ECa-109 cell line [2] = assay: Induction of apoptosis in human EC109 cells assessed as increase in intracellular ROS level at 5 mM incubated for 24 hrs by DCFH-DA staining based flow cytometry analysis (reference value: 0.6 %); type: functional
ECa-109 cell line [3] = assay: Induction of mitochondrial depolarization in human EC-109 cells assessed as depolarized cell population at 5 mM measured after 24 hrs by JC1 dye based flow cytometry (reference value: 4.2 %); type: functional
ECa-109 cell line [4] = assay: Induction of apoptosis in human EC-109 cells assessed as apoptotic rate at 5 mM after 24 hrs by Annexin V-FITC/propidium iodide staining based flow cytometry (reference value: 5.7 %); type: functional
ECa-109 cell line [5] = assay: Induction of apoptosis in human EC-109 cells assessed as apoptotic rate at 5 mM after 48 hrs by Annexin V-FITC/propidium iodide staining based flow cytometry (reference value: 3.8 %); type: functional

Row | SMILES | IC50 (MCF7) | IC50 (ECa-109 cell line [1]) | IC50 (MGC-803) | IC50 (TE-1) | Activity (ECa-109 cell line [2]) | Activity (ECa-109 cell line [3]) | Activity (ECa-109 cell line [4]) | Activity (ECa-109 cell line [5])
1 | C=C1C(=O)[C@@]23[C@H](O)C[C@@H]4C(C)(C)CCC[C@@]4(COC(C)=O)[C@@H]2[C@@H](O)C[C@H]1[C@H]3OC(=O)c1cccc(Cl)c1 | 360 nM | 400 nM | 410 nM | 410 nM |  |  |  | 
2 | C=C1C(=O)[C@]23[C@H](O)[C@H]1CC[C@H]2[C@@]12CO[C@]3(O)[C@@H](O)[C@@H]1C(C)(C)CC[C@@H]2O [ORIDONIN] |  | 22000 nM |  |  |  |  |  | 
3 | C=C1C(=O)[C@@]23[C@H](O)C[C@@H]4C(C)(C)CCC[C@@]4(COC(C)=O)[C@@H]2[C@@H](O)C[C@H]1[C@H]3OC(=O)c1cccc(C(F)(F)F)c1 | 290 nM | 330 nM | 1150 nM | 370 nM |  |  |  | 
4 | C=C1C(=O)[C@@]23[C@H](O)C[C@@H]4C(C)(C)CCC[C@@]4(COC(C)=O)[C@@H]2[C@@H](O)C[C@H]1[C@H]3OC(=O)c1ccccc1F | 1720 nM | 1630 nM | 2290 nM | 3630 nM |  |  |  | 
5 | C=C1C(=O)[C@@]23[C@H](O)C[C@@H]4C(C)(C)CCC[C@@]4(COC(C)=O)[C@@H]2[C@@H](O)C[C@H]1[C@H]3OC(=O)c1cc(Cl)ccc1OC | 480 nM | 560 nM | 660 nM | 460 nM |  |  |  | 
6 | C=C1C(=O)[C@@]23[C@H](O)C[C@@H]4C(C)(C)CCC[C@@]4(COC(C)=O)[C@@H]2[C@@H](O)C[C@H]1[C@H]3OC(=O)c1ccccc1C | 390 nM | 470 nM | 630 nM | 450 nM |  |  |  | 
7 | C=C1C(=O)[C@@]23[C@H](O)C[C@@H]4C(C)(C)CCC[C@@]4(COC(C)=O)[C@@H]2[C@@H](O)C[C@H]1[C@H]3OC(=O)c1cccc(C)c1 | 290 nM | 370 nM | 310 nM | 320 nM |  |  |  | 
8 | C=C1C(=O)[C@@]23[C@H](O)C[C@@H]4C(C)(C)CCC[C@@]4(COC(C)=O)[C@@H]2[C@@H](O)C[C@H]1[C@H]3OC(=O)c1cccc(F)c1 | 2230 nM | 1630 nM | 2350 nM | 1300 nM |  |  |  | 
9 | C=C1C(=O)[C@@]23[C@H](O)C[C@@H]4C(C)(C)CCC[C@@]4(COC(C)=O)[C@@H]2[C@@H](O)C[C@H]1[C@H]3OC(=O)c1ccccc1Cl | 410 nM | 410 nM | 710 nM | 450 nM |  |  |  | 
10 | C=C1C(=O)[C@@]23[C@H](O)C[C@@H]4C(C)(C)CCC[C@@]4(COC(C)=O)[C@@H]2[C@@H](O)C[C@H]1[C@H]3OC(=O)c1cccc(Br)c1 | 380 nM | 240 nM | 420 nM | 160 nM |  |  |  | 
11 | C=C1C(=O)[C@@]23[C@H](O)C[C@@H]4C(C)(C)CCC[C@@]4(COC(C)=O)[C@@H]2[C@@H](O)C[C@H]1[C@H]3OC(=O)c1cccc(OC)c1 | 250 nM | 440 nM | 460 nM | 420 nM |  |  |  | 
12 | C=C1C(=O)[C@@]23[C@H](O)C[C@@H]4C(C)(C)CCC[C@@]4(COC(C)=O)[C@@H]2[C@@H](O)C[C@H]1[C@H]3OC(=O)c1ccccc1Br | 460 nM | 510 nM | 520 nM | 370 nM |  |  |  | 
13 | C=C1C(=O)[C@@]23[C@H](O)C[C@@H]4C(C)(C)CCC[C@@]4(COC(C)=O)[C@@H]2[C@@H](O)C[C@H]1[C@H]3OC(=O)c1ccc(F)cc1 | 1340 nM | 8480 nM | 920 nM | 20100 nM |  |  |  | 
14 | C=C1C(=O)[C@@]23[C@H](O)C[C@@H]4C(C)(C)CCC[C@@]4(COC(C)=O)[C@@H]2[C@@H](O)C[C@H]1[C@H]3OC(=O)c1ccc(Cl)cc1 | 270 nM | 330 nM | 280 nM | 380 nM |  |  |  | 
15 | C=C1C(=O)[C@@]23[C@H](O)C[C@@H]4C(C)(C)CCC[C@@]4(COC(C)=O)[C@@H]2[C@@H](O)C[C@H]1[C@H]3OC(=O)CCCBr | 470 nM | 760 nM | 250 nM | 470 nM |  |  |  | 
16 | C=C1C(=O)[C@@]23[C@H](O)C[C@@H]4C(C)(C)CCC[C@@]4(COC(C)=O)[C@@H]2[C@@H](O)C[C@H]1[C@H]3OC(=O)c1ccc(OC)c(OC)c1 | 140 nM | 270 nM | 570 nM | 340 nM |  |  |  | 
17 | C=C1C(=O)[C@@]23[C@H](O)C[C@@H]4C(C)(C)CCC[C@@]4(COC(C)=O)[C@@H]2[C@@H](O)C[C@H]1[C@H]3OC(=O)c1ccc(Br)cc1 | 330 nM | 380 nM | 610 nM | 390 nM |  |  |  | 
18 | C=C1C(=O)[C@@]23[C@H](O)C[C@@H]4C(C)(C)CCC[C@@]4(COC(C)=O)[C@@H]2[C@@H](O)C[C@H]1[C@H]3OC(=O)c1ccc(CBr)cc1 | 140 nM | 170 nM | 340 nM | 250 nM |  |  |  | 
19 | C=C1C(=O)[C@@]23[C@H](O)C[C@@H]4C(C)(C)CCC[C@@]4(COC(C)=O)[C@@H]2[C@@H](O)C[C@H]1[C@H]3OC(=O)CCc1ccccc1 | 600 nM | 680 nM | 1280 nM | 720 nM |  |  |  | 
20 | C=C1C(=O)[C@@]23[C@H](O)C[C@@H]4C(C)(C)CCC[C@@]4(COC(C)=O)[C@@H]2[C@@H](O)C[C@H]1[C@H]3OC(=O)c1ccccc1 | 200 nM | 310 nM | 470 nM | 330 nM |  |  |  | 
21 | C=C1C(=O)[C@@]23[C@H](O)C[C@@H]4C(C)(C)CCC[C@@]4(COC(C)=O)[C@@H]2[C@@H](O)C[C@H]1[C@H]3O | 6790 nM | 5240 nM | 8700 nM | 6820 nM |  |  |  | 
22 | C=C1C(=O)[C@@]23[C@H](O)C[C@@H]4C(C)(C)CCC[C@@]4(COC(C)=O)[C@@H]2[C@@H](O)C[C@H]1[C@H]3OC(=O)c1cccc(Cl)c1Cl | 310 nM | 330 nM | 690 nM | 390 nM |  |  |  | 
23 | C=C1C(=O)[C@@]23[C@H](O)C[C@@H]4C(C)(C)CCC[C@@]4(COC(C)=O)[C@@H]2[C@@H](O)C[C@H]1[C@H]3OC(=O)c1ccc(OC)cc1 | 230 nM | 290 nM | 460 nM | 250 nM |  |  |  | 
24 | C=C1C(=O)[C@@]23[C@H](O)C[C@@H]4C(C)(C)CCC[C@@]4(COC(C)=O)[C@@H]2[C@@H](O)C[C@H]1[C@H]3OC(=O)c1ccc(Cl)cc1Cl | 1170 nM | 4250 nM | 1150 nM | 1240 nM |  |  |  | 
25 | C=C1C(=O)[C@@]23[C@H](O)C[C@@H]4C(C)(C)CCC[C@@]4(COC(C)=O)[C@@H]2[C@@H](O)C[C@H]1[C@H]3OC(=O)c1ccc(C(F)(F)F)cc1 | 350 nM | 380 nM | 770 nM | 420 nM |  |  |  | 
26 | C=C1C(=O)[C@@]23[C@H](O)C[C@@H]4C(C)(C)CCC[C@@]4(COC(C)=O)[C@@H]2[C@@H](O)C[C@H]1[C@H]3OC(=O)c1ccc(C)cc1 | 240 nM | 300 nM | 480 nM | 300 nM |  |  |  | 
27 | C=C1C(=O)[C@@]23[C@H](O)C[C@@H]4C(C)(C)CCC[C@@]4(COC(C)=O)[C@@H]2[C@@H](O)C[C@H]1[C@H]3OC(=O)c1ccccc1C(F)(F)F | 400 nM | 420 nM | 790 nM | 320 nM |  |  |  | 
28 | CC(=O)N[C@@H](CS)C(=O)O [ACETYLCYSTEINE] |  |  |  |  | 0.2% | 4.8% | 6.4% | 4.5%
